Structures can show the parent of a compound that is named as a salt.
What was measured:
[1] = test system: human three-dimensional culture epidermal model (LabCyte EPI-MODEL); assay: Suppression by cholesterol of skin irritation mediator production induced by drugs in a human epidermal cell (Experiment 2); assay type: cell-based
Protocol: (§1) A human three-dimensional epidermal culture model obtained by multilayer-culturing a human normal epidermal cell (LabCyte EPI-MODEL, manufactured by Japan Tissue Engineering Co., Ltd.) was used. LabCyte is a cultured skin cultured in a transwell. For the experiment, LabCyte was used with the transwell.
(§2) The experiment was conducted as below. First, LabCyte was put into a 24-well assay plate. Then, 1 ml of assay medium (Japan Tissue Engineering Co., Ltd.) was added so that it was brought into contact with a bottom surface of the cultured skin in each well of the 24-well assay plate, and was pre-cultured in an incubator with 5% of carbon dioxide concentration at 37° C. for 1 hour.
(§3) The test solutions of each group were added to the cells, the culture solutions incubated for 48 hours were collected, and a production amount of each skin irritation mediator was measured. The skin irritation mediator was measured by using a commercially available ELISA kit (manufactured by R&D Systems, Inc.). A relative production amount of the skin irritation mediator in each test substance was calculated as below, when the production amount of the skin irritation mediator in the PMA Only Group was set to 100.
Cholesterol was used as a test substance. The drugs shown in Table 2 were used as the cutaneous irritants.
Tests were conducted by the following group composition. • Drug Only Group: A group with addition of only the drug dispersed in a vehicle, as a test solution. Concentrations of the drugs are shown in Table 2. • Drug Plus Cholesterol Group: A group with addition of the drug and 1% by mass of cholesterol which were dispersed in a vehicle, as a test solution.
The experiment was conducted while other conditions were set in the same manner as in Experiment 1.

[2] = test system: human three-dimensional culture epidermal model (LabCyte EPI-MODEL); assay: Production of skin irritation mediators induced by PMA in human three-dimensional epidermal culture model (Experiment 1); assay type: cell-based
Text: Changes in production amounts of skin irritation mediators by test substances were examined when cutaneous irritants were caused to act on a human three-dimensional culture epidermal model.
as §1
As test substances, there were used cholesterol (manufactured by Wako Pure Chemical Industries, Ltd.), β-sitosterol (manufactured by TAMA BIOCHEMICAL CO., LTD.), α-spinasterol (manufactured by ChromaDex, Inc.), ergosterol (manufactured by Wako Pure Chemical Industries, Ltd.), campesterol (manufactured by TAMA BIOCHEMICAL CO., LTD.), glycyrrhizin (manufactured by Wako Pure Chemical Industries, Ltd.), glycyrrhetinic acid (manufactured by Wako Pure Chemical Industries, Ltd.), ginsenoside (manufactured by Wako Pure Chemical Industries, Ltd.), squalene (manufactured by Wako Pure Chemical Industries, Ltd.), squalane (manufactured by Tokyo Chemical Industry Co., Ltd.) and lanosterol (manufactured by ChromaDex, Inc.), which are candidates of a skin irritation suppressant.
As skin irritants, Phorbol 12-Myristate 13-Acetate (PMA, manufactured by Wako Pure Chemical Industries, Ltd.) was used. In addition, as vehicle, olive oil (manufactured by Wako Pure Chemical Industries, Ltd.) was used.
Experiments were conducted by the following group composition. • PMA Only Group: A group with addition of only 0.00001 mol of PMA dispersed in a vehicle, as a test solution. • Test Substance Group: A group with addition of 0.00001 mol of PMA and the test substance which were dispersed in a vehicle, as a test solution.
as §2
Next, a cell survival rate was measured by the MTT method after causing the test solutions of each group to act. Specifically, 50 μL of the test solution of each group was added to the surface of the LabCyte after preculture, was cultured in the incubator with 5% of carbon dioxide concentration at 37° C. for 48 hours, then was transferred to the assay medium comprising 0.5 mg/ml of MTT reagent, and was cultured in the incubator with 5% of carbon oxide level at 37° C. for 3 hours. Then, LabCyte was immersed in 0.3 ml of an isopropanol solution, and the produced blue-purple formazan was extracted for 2 hours. After extraction, an absorbance at 570 nm was measured by a 96 microplate reader. The cell survival rate was calculated as below.
Cell survival rate (%)=(absorbance of Test Substance Group)/(absorbance of PMA Only Group)×100
Subsequently, a production amount of the skin irritation mediator at a test substance concentration with 80% or more of cell survival rate was measured. As skin irritation mediators, PGE2, IL-1α, IL-6, IL-8 were measured.
as §3
Relative production amount=(production amount of the mediator in Test Substance Group)/(production amount of the mediator in PMA Only Group)×100

[3] = Drug Plus Cholesterol Group: drug 1 × 10^−3 M plus 1% by mass of cholesterol
[4] = Drug Plus Cholesterol Group: drug 8 × 10^−5 M plus 1% by mass of cholesterol
[5] = test substance 0.1 mass % with PMA in olive oil, 48 hours
[6] = Drug Plus Cholesterol Group: drug 2 × 10^−3 M plus 1% by mass of cholesterol

CC(C)NCC(O)COc1ccc(COCCOC(C)C)cc1 (stereo not drawn) [Bisoprolol Fumarate]
Relative Production Amount of Skin Irritation Mediator when Production Amount in Drug Only Group is Set to 100: IL-1α [1, 3]: 26
Relative Production Amount of Skin Irritation Mediator when Production Amount in Drug Only Group is Set to 100: IL-6 [1, 3]: 72
Relative Production Amount of Skin Irritation Mediator when Production Amount in Drug Only Group is Set to 100: IL-8 [1, 3]: 73
Relative Production Amount of Skin Irritation Mediator when Production Amount in Drug Only Group is Set to 100: PGE2 [1, 3]: 87

Cc1ccc(O)c([C@H](CCN(C(C)C)C(C)C)c2ccccc2)c1 [Tolterodine Tartrate]
Relative Production Amount of Skin Irritation Mediator when Production Amount in Drug Only Group is Set to 100: IL-1α [1, 4]: 48
Relative Production Amount of Skin Irritation Mediator when Production Amount in Drug Only Group is Set to 100: IL-6 [1, 4]: 92
Relative Production Amount of Skin Irritation Mediator when Production Amount in Drug Only Group is Set to 100: IL-8 [1, 4]: 66
Relative Production Amount of Skin Irritation Mediator when Production Amount in Drug Only Group is Set to 100: PGE2 [1, 4]: 58

CN(C)CCC[C@@]1(c2ccc(F)cc2)OCc2cc(C#N)ccc21.O=C(O)C(=O)O [(S)-citalopram Oxalate]
Relative Production Amount of Skin Irritation Mediator when Production Amount in Drug Only Group is Set to 100: IL-1α [1, 3]: 61
Relative Production Amount of Skin Irritation Mediator when Production Amount in Drug Only Group is Set to 100: IL-6 [1, 3]: 85
Relative Production Amount of Skin Irritation Mediator when Production Amount in Drug Only Group is Set to 100: IL-8 [1, 3]: 64
Relative Production Amount of Skin Irritation Mediator when Production Amount in Drug Only Group is Set to 100: PGE2 [1, 3]: 46

CC[C@H](/C=C/[C@@H](C)[C@H]1CC[C@H]2C3=CC[C@H]4C[C@@H](O)CC[C@]4(C)[C@H]3CC[C@]12C)C(C)C [α-spinasterol]
Effect on skin irritation mediator production by PMA (in words) ([2]; summary of Table 1): exhibited effects of suppressing the skin irritation mediator production by PMA
Relative Production Amount of Skin Irritation Mediator when Production Amount in PMA Only Group is Set to 100: IL-1α [2, 5]: 38
Relative Production Amount of Skin Irritation Mediator when Production Amount in PMA Only Group is Set to 100: IL-6 [2, 5]: 109
Relative Production Amount of Skin Irritation Mediator when Production Amount in PMA Only Group is Set to 100: IL-8 [2, 5]: 72
Relative Production Amount of Skin Irritation Mediator when Production Amount in PMA Only Group is Set to 100: PGE2 [2, 5]: 43

CN1CCCC1c1cccnc1 (stereo not drawn) [Nicotine]
Relative Production Amount of Skin Irritation Mediator when Production Amount in Drug Only Group is Set to 100: IL-1α [1, 6]: 29
Relative Production Amount of Skin Irritation Mediator when Production Amount in Drug Only Group is Set to 100: IL-6 [1, 6]: 93
Relative Production Amount of Skin Irritation Mediator when Production Amount in Drug Only Group is Set to 100: IL-8 [1, 6]: 67
Relative Production Amount of Skin Irritation Mediator when Production Amount in Drug Only Group is Set to 100: PGE2 [1, 6]: 58

From US20130053357A1, “SKIN IRRITATION SUPPRESSANT AND TRANSDERMAL PREPARATION” (HISAMITSU PHARMACEUTICAL CO., INC., priority 2010, published 2013)
